From publication PMC9146161, “Novel Thienyl-Based Tyrosine Kinase Inhibitors for the Treatment of Hepatocellular Carcinoma” (Journal of Personalized Medicine, 2022)

Biological target: T1, VEGFR-2 (Homo sapiens, UniProt P35968)
T1 construct: gene KDR
Assay: cell-free enzymatic kinase assay (Eurofins KinaseProfiler), dose-response […]
Format: biochemical

T1 sequence (P35968 20-1356): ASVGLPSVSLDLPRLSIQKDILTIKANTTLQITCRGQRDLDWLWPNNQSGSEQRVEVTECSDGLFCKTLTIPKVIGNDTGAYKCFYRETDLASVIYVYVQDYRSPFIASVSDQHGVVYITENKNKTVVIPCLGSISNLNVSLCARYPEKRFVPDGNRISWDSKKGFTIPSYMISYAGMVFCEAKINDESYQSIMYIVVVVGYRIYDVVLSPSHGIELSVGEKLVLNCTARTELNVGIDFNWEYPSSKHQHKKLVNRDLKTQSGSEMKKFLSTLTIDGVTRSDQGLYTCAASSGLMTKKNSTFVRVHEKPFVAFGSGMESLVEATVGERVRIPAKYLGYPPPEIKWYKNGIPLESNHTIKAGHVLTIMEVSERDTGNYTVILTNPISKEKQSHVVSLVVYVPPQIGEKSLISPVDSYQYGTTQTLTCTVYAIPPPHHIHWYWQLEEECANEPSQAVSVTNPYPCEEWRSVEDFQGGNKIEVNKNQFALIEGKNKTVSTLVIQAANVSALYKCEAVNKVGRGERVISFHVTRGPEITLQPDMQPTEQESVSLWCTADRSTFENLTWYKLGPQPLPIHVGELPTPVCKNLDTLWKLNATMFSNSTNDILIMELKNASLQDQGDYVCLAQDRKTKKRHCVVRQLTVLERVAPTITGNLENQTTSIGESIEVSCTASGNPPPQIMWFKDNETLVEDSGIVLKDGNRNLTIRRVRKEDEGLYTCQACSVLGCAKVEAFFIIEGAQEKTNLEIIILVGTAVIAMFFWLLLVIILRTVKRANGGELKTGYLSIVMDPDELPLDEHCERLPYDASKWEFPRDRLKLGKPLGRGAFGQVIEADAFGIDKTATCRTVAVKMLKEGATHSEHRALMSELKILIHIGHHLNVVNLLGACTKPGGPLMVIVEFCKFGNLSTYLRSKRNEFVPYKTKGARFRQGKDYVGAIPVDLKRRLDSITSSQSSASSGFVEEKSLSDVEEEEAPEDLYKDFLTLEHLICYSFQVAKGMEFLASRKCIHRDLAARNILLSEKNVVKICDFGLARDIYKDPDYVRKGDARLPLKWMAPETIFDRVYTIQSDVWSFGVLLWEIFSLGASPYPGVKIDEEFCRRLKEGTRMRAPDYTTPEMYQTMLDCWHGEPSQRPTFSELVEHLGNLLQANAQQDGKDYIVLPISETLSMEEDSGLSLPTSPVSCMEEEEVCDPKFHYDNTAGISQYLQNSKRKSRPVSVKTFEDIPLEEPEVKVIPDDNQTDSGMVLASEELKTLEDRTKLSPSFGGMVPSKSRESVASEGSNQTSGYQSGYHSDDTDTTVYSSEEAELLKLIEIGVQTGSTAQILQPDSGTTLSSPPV

IC50: 3.31 µM
SMILES: COc1ccc(/C=C(\C#N)c2cccs2)cc1O [Thio-Iva]
